Results from publication PMC11571207, “Stereorandomized Oncocins with Preserved Ribosome Binding and Antibacterial Activity” (Journal of Medicinal Chemistry, 2024).
Values after ≈ are worked out from the molar mass of the structure shown. Like-named read-outs stand apart in the source and are kept apart here. Non-standard residues stand in square brackets, D forms with d. Residues, ends and D or L forms follow the SMILES beside them.

Tests used:
[1] = system: P. aeruginosa PA14 2P4 (pmrB); test: microbe, parasite or virus in culture; details: for MIC P. aeruginosa PA14 2P4: supplement CSV
Procedure: (§1) Minimum inhibitory concentration assay
(§2) Antimicrobial activity was assayed against P. aeruginosa PAO1, K. pneumoniae NCTC418, E. coli W3110, A. baumannii ATCC 19606, methicillin-resistant S. aureus COL (MRSA), and for selected peptides on P. aeruginosa PA14 and the polymyxin-B-resistant derivative PA14 2P4, as well as the clinical isolates ZEM-1A and ZEM9A, K. pneumoniae OXA-48, S. aureus Newman, Enterobacter cloacae and Burkholderia cenocepacia. The minimal inhibitory concentration (MIC) was determined by using broth microdilution method. A colo ny of bacteria was picked and grown in Luria-Bertani (LB) medium overnight at 37°C. For E. coli BW25113 sbmA::kan the medium was supplemented with 25 mg/L of kanamycin. The next day, the culture was then regrown in LB medium to log phase (OD600 = 0.6 to 0.8), which lasted approximately 4 h, and diluted to an OD600 of 0.022 in the desired medium. Stock solutions of 1 mg/mL of the samples were prepared in sterilized milliQ water and diluted to the beginning concentration of 64 μg/mL in 300 μL Mueller Hinton (MH)-medium. The diluted samples were added to first well of 96-well microtiter plate (TPP, untreated, Faust Laborbedarf, AG, Schaffhausen) and diluted serially by ½. Finally, 4 μL of the bacterial suspension was inoculated into the sample solutions (150 μL/well) with a final inoculation of about 5∙10^5 CFU/mL. The plates were then incubated at 37°C for 15-18h. For each assay, sterility (broth only) and growth control (broth with bacterial inoculum, without antibiotics) were checked with two columns in the plate. The next day, 15 μL of 3-(4,5-dimethylthiazol-2-yl)-2,5-diphenyltetrazolium bromide (MTT) was added to each well of the plate, such a way that MIC was defined as the lowest concentration of the peptide that inhibited visible growth of the tested

P. aeruginosa ZEM-1A = test: microbe, parasite or virus in culture
Procedure: as §1, §2

E. cloacae = test: microbe, parasite or virus in culture; details: for MIC E. cloacae: supplement CSV
Procedure: as §1, §2

K. pneumoniae OXA-48 = test: microbe, parasite or virus in culture; details: for MIC K. pneumoniae OXA-48: supplement CSV
Procedure: as §1, §2

P. aeruginosa ZEM9A = test: microbe, parasite or virus in culture; details: for MIC P. aeruginosa ZEM9A: supplement CSV
Procedure: as §1, §2

P. aeruginosa PA14 = test: microbe, parasite or virus in culture; details: for MIC P. aeruginosa PA14: supplement CSV
Procedure: as §1, §2

K. pneumoniae NCTC 418 = test: microbe, parasite or virus in culture; details: for MIC K. pneumoniae NCTC418: supplement CSV
Summary of the method: (§3)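 Read-out was visible growth after MTT addition, the MIC being the lowest inhibitory peptide concentration. Bacteria grown to log phase in LB were exposed in MH medium to peptide from 64 μg/mL in twofold dilutions for 15-18h at 37°C.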

A. baumannii ATCC19606 = test: microbe, parasite or virus in culture; details: for MIC A. baumannii ATCC19606: supplement CSV
Summary of the method: as §3

S. aureus COL (MRSA) = test: microbe, parasite or virus in culture; details: for MIC S. aureus COL (MRSA): supplement CSV
Summary of the method: as §3

P. aeruginosa PAO1 = test: microbe, parasite or virus in culture; details: for MIC P. aeruginosa PAO1: supplement CSV
Summary of the method: as §3

E. coli W3110 = test: microbe, parasite or virus in culture; details: for MIC E. coli W3110: supplement CSV
Summary of the method: as §3

[2] = system: P. aeruginosa PA14 4.13 (phoQ); details: for MIC P. aeruginosa PA14 4.13: supplement CSV
[3] = system: P. aeruginosa PA14 4.18 (pmrB); details: for MIC P. aeruginosa PA14 4.18: supplement CSV
human red blood cells = test: Hemolysis assay, minimum hemolytic concentration
[4] = polymyxin B resistant strain, 12.5% MHB pH 7.4, 16–20 h at 37 °C
[5] = polymyxin B resistant strain, full MHB pH 7.4, 16–20 h at 37 °C

CC[C@@H](C)[C@@H](NC(=O)[C@@H](CCCNC(=N)N)NC(=O)[C@H](CCCNC(=N)N)NC(=O)[C@@H]1CCCN1C(=O)[C@@H]1CCCN1C(=O)[C@H](CCCNC(=N)N)NC(=O)[C@@H]1CCCN1C(=O)[C@H](CCCNC(=N)N)NC(=O)[C@@H]1CCCN1C(=O)[C@H](CC(C)C)NC(=O)[C@H](Cc1ccc(O)cc1)NC(=O)[C@@H]1CCCN1C(=O)[C@@H]1CCCN1C(=O)[C@H](CCCCN)NC(=O)[C@H](CC(=O)O)NC(=O)[C@@H](N)C(C)C)C(=O)N[C@H](Cc1ccc(O)cc1)C(=O)N[C@H](CC(N)=O)C(=O)N[C@H](CCCNC(=N)N)C(N)=O [D5Cterm-Onc] (H-VDKPPYLPRPRPPR[dR][dI][dY][dN][dR]-NH2)
MIC P. aeruginosa PA14 2P4 (pmrB), 12.5% MHB [1, 4]: 2 µg/mL (≈ 0.837 µM)
MIC P. aeruginosa PA14 2P4 (pmrB), full MHB [1, 5]: > 64 µg/mL
MIC P. aeruginosa PA14 2P4 ([1]; 12.5% MH pH 7.4): 2 µg/mL (≈ 0.837 µM)
MIC P. aeruginosa PA14 2P4 ([1]; full MH pH 7.4): >64 µg/mL
MIC P. aeruginosa ZEM-1A, 12.5% MHB (P. aeruginosa ZEM-1A; clinical isolate, 12.5% MHB pH 7.4, 16–20 h at 37 °C, cells marked c: single measurement (in duplicates)): 4 to 8 µg/mL
MIC P. aeruginosa ZEM-1A (P. aeruginosa ZEM-1A; supplement CSV, 12.5% MH pH 7.4): 4 to 8 µg/mL
MIC E. cloacae, 12.5% MHB (E. cloacae; 12.5% MHB pH 7.4, 16–20 h at 37 °C): 1 µg/mL (≈ 0.418 µM)
MIC E. cloacae, full MHB (E. cloacae; full MHB pH 7.4, 16–20 h at 37 °C): 32 µg/mL (≈ 13.4 µM)
MIC E. cloacae (E. cloacae; 12.5% MH pH 7.4): 1 µg/mL (≈ 0.418 µM)
MIC E. cloacae (E. cloacae; full MH pH 7.4): 32 µg/mL (≈ 13.4 µM)
MIC K. pneumoniae OXA-48, 12.5% MHB (K. pneumoniae OXA-48; carbapenem-resistant, 12.5% MHB pH 7.4, 16–20 h at 37 °C): 4 µg/mL (≈ 1.67 µM)
MIC K. pneumoniae OXA-48, full MHB (K. pneumoniae OXA-48; carbapenem-resistant, full MHB pH 7.4, 16–20 h at 37 °C): 32 µg/mL (≈ 13.4 µM)
MIC K. pneumoniae OXA-48 (K. pneumoniae OXA-48; 12.5% MH pH 7.4): 4 µg/mL (≈ 1.67 µM)
MIC K. pneumoniae OXA-48 (K. pneumoniae OXA-48; full MH pH 7.4): 32 µg/mL (≈ 13.4 µM)
MIC P. aeruginosa ZEM9A, 12.5% MHB (P. aeruginosa ZEM9A; clinical isolate, 12.5% MHB pH 7.4, 16–20 h at 37 °C): 2 µg/mL (≈ 0.837 µM)
MIC P. aeruginosa ZEM9A, full MHB (P. aeruginosa ZEM9A; clinical isolate, full MHB pH 7.4, 16–20 h at 37 °C): > 64 µg/mL
MIC P. aeruginosa ZEM9A (P. aeruginosa ZEM9A; 12.5% MH pH 7.4): 2 µg/mL (≈ 0.837 µM)
MIC P. aeruginosa ZEM9A (P. aeruginosa ZEM9A; full MH pH 7.4): >64 µg/mL
MIC P. aeruginosa PA14, 12.5% MHB (P. aeruginosa PA14; 12.5% MHB pH 7.4, 16–20 h at 37 °C, two different duplicate MIC determinations): 8 µg/mL (≈ 3.35 µM)
MIC P. aeruginosa PA14, full MHB (P. aeruginosa PA14; full MHB pH 7.4, 16–20 h at 37 °C, two different duplicate MIC determinations): > 64 µg/mL
MIC P. aeruginosa PA14 (P. aeruginosa PA14; 12.5% MH pH 7.4): 8 µg/mL (≈ 3.35 µM)
MIC P. aeruginosa PA14 (P. aeruginosa PA14; full MH pH 7.4): >64 µg/mL
MIC K. pneumoniae, 12.5% MHB (K. pneumoniae NCTC 418; K. pneumoniae NCTC 418, 12.5% Müller–Hinton medium, 16–20 h at 37 °C): 2 µg/mL (≈ 0.837 µM)
MIC K. pneumoniae, Full MHB (K. pneumoniae NCTC 418; K. pneumoniae NCTC 418, full Müller–Hinton medium, 16–20 h at 37 °C): 4 µg/mL (≈ 1.67 µM)
MIC K. pneumoniae NCTC418 (K. pneumoniae NCTC 418; 12.5% MH pH 7.4): 2 µg/mL (≈ 0.837 µM)
MIC K. pneumoniae NCTC418 (K. pneumoniae NCTC 418; full MH pH 7.4): 4 µg/mL (≈ 1.67 µM)
MIC A. baumannii, 12.5% MHB (A. baumannii ATCC19606; A. baumannii ATCC19606, 12.5% Müller–Hinton medium, 16–20 h at 37 °C): 8 µg/mL (≈ 3.35 µM)
MIC A. baumannii, Full MHB (A. baumannii ATCC19606; A. baumannii ATCC19606, full Müller–Hinton medium, 16–20 h at 37 °C): 64 µg/mL (≈ 26.8 µM)
MIC A. baumannii ATCC19606 (A. baumannii ATCC19606; 12.5% MH pH 7.4): 8 µg/mL (≈ 3.35 µM)
MIC A. baumannii ATCC19606 (A. baumannii ATCC19606; full MH pH 7.4): 64 µg/mL (≈ 26.8 µM)
MIC S. aureus, 12.5% MHB (S. aureus COL (MRSA); S. aureus COL (MRSA), 12.5% Müller–Hinton medium, 16–20 h at 37 °C): 32 µg/mL (≈ 13.4 µM)
MIC S. aureus, Full MHB (S. aureus COL (MRSA); S. aureus COL (MRSA), full Müller–Hinton medium, 16–20 h at 37 °C): > 64 µg/mL
MIC S. aureus COL (MRSA) (S. aureus COL (MRSA); 12.5% MH pH 7.4): 32 µg/mL (≈ 13.4 µM)
MIC S. aureus COL (MRSA) (S. aureus COL (MRSA); full MH pH 7.4): >64 µg/mL
MIC P. aeruginosa, 12.5% MHB (P. aeruginosa PAO1; P. aeruginosa PAO1, 12.5% Müller–Hinton medium, 16–20 h at 37 °C): 8 µg/mL (≈ 3.35 µM)
MIC P. aeruginosa, Full MHB (P. aeruginosa PAO1; P. aeruginosa PAO1, full Müller–Hinton medium, 16–20 h at 37 °C): 64 µg/mL (≈ 26.8 µM)
MIC P. aeruginosa PAO1 (P. aeruginosa PAO1; 12.5% MH pH 7.4): 8 µg/mL (≈ 3.35 µM)
MIC P. aeruginosa PAO1 (P. aeruginosa PAO1; full MH pH 7.4): 64 µg/mL (≈ 26.8 µM)
MIC E. coli, 12.5% MHB (E. coli W3110; E. coli W3110, 12.5% Müller–Hinton medium, 16–20 h at 37 °C, broth microdilution): 2 µg/mL (≈ 0.837 µM)
MIC E. coli, Full MHB (E. coli W3110; E. coli W3110, full Müller–Hinton medium, 16–20 h at 37 °C, broth microdilution): 4 µg/mL (≈ 1.67 µM)
MIC E. coli W3110 (E. coli W3110; 12.5% MH pH 7.4): 2 µg/mL (≈ 0.837 µM)
MIC E. coli W3110 (E. coli W3110; full MH pH 7.4): 4 µg/mL (≈ 1.67 µM)
MIC P. aeruginosa PA14 4.13 (phoQ), 12.5% MHB [2, 4]: 8 µg/mL (≈ 3.35 µM)
MIC P. aeruginosa PA14 4.13 (phoQ), full MHB [2, 5]: 64 µg/mL (≈ 26.8 µM)
MIC P. aeruginosa PA14 4.13 ([2]; 12.5% MH pH 7.4): 8 µg/mL (≈ 3.35 µM)
MIC P. aeruginosa PA14 4.13 ([2]; full MH pH 7.4): 64 µg/mL (≈ 26.8 µM)
MIC P. aeruginosa PA14 4.18 (pmrB), 12.5% MHB [3, 4]: 8 µg/mL (≈ 3.35 µM)
MIC P. aeruginosa PA14 4.18 (pmrB), full MHB [3, 5]: 64 µg/mL (≈ 26.8 µM)
MIC P. aeruginosa PA14 4.18 ([3]; 12.5% MH pH 7.4): 8 µg/mL (≈ 3.35 µM)
MIC P. aeruginosa PA14 4.18 ([3]; full MH pH 7.4): 64 µg/mL (≈ 26.8 µM)
Haemolysis on hRBC, MHC (human red blood cells; 2.5% human red blood cells (final) in 10 mM phosphate, 150 mM NaCl, pH 7.4, 25 °C, 4 h, visual inspection): >1000 µg/mL
MHC human red blood cells (human red blood cells; supplement CSV): >1000 µg/mL
